Results published in US20250304526A1, “HIGH AND MULTIPLE REDOX POTENTIAL, STABLE, AND SOLUBLE BIS-DIARYLAMINE DERIVATIVES AND USES THEREOF” (University of Kentucky Research Foundation, priority 2024, published 2025).
≈ marks a conversion by molar mass, not a printed value. Like-named read-outs stand apart in the source and are kept apart here.

What was measured:
Type in all cases: physicochemical
[1] = Solubility determination in pure acetonitrile by mass measurement
Experimental: The solubility of the compounds in pure acetonitrile was determined by the mass measurement method described previously. Saturated solutions of each compound were prepared and filtered to remove any undissolved material. Afterwards, 3 mL of each solution were taken and added to previously weighed vials (the measurement was repeated three times for each solution, i.e. 3 vials for each solution). The vials were then stored open in a nitrogen-filled glove box to allow the slow evaporation of the solvent. After 10 days, acetonitrile was evaporated from all vials, leaving only the previously dissolved solid. The vials were then re-weighed and the mass of the solid was determined by subtracting the mass of the respective empty vial. The concentration of the compound was calculated from the mass of the dissolved solid and the volume of the sample placed into the vial.
The solubilities of 1-4 were examined in pure CH3CN using the mass measurement method.

[2] = Cyclic voltammetry (redox potentials, diffusion coefficients); settings: 1 mM in 0.2M TBAPF6/CH3CN; for D (diffusion coefficient): Randles-Sevcik equation
[3] = Galvanostatic bulk electrolysis (BE) cycling in H-cell; settings: for Cyclic voltammograms before and after BE (decomposition check): 0.1M TBAPF6/CH3CN, scan rate 0.2 V·s^−1
Experimental: BE experiments were performed in custom-made H-cells. The H-cell has two electrolyte chambers separated by an ultra-fine porous glass frit (P5, Adams and Chittenden) which prevents the mixing of the electrolytes. Two homemade reticulated vitreous carbon (45 PPI, Duocel®) electrodes, placed in both chambers separately served as the working and counter electrodes. A non-aqueous Ag/Ag^+ (silver wire immersed in CH3CN containing 0.1 M TBABF4 and 0.01 M AgBF4) electrodes was used as a reference electrode and was placed next to the working electrode in the same chamber. In addition, a 3 mm-glassy carbon electrode (CH Instruments, Inc.) was attached to the working electrode chamber to record CVs before and after bulk electrolysis experiments. In each of the working and the counter electrode chambers, 3.5 mL of electrolyte containing a given concentration of the neutral active species and 0.1 M TBAPF6/CH3CN were added to both the working and the counter electrode chambers for charge-discharge cycling. The voltage cut-offs were determined by recording a CV in the working electrode side prior to the start of the bulk electrolysis experiment. The values of the cut-off voltage were set by adding 0.3 V to the calculated half-way oxidation potential determined by CV. Both the working and the counter electrode chambers were stirred throughout the bulk electrolysis experiments at a stirring speed of 900 rpm to maintain mass transfer during charging and discharging. The experiment was conducted at variable C-rates, starting with 3 C then 2 C and finally 1 C with 8 cycles run at each C-rate. The galvanostatic control and data acquisition were achieved by incorporating a BioLogic VSP potentiostat.
Galvanostatic bulk electrolysis (BE) cycling was performed to monitor the charged species self-discharge by following the coulombic efficiency (CE). BE is particularly interesting because it provides deeper insights on the electrochemical stability of the electroactive compounds upon continuous galvanostatic cycling. More information about this technique is provided in the supplementary information. Essentially, if trace impurities existing in the electrolyte trigger self-discharge of the charged species, a relatively large portion of oxidized species will switch to its uncharged form if the concentration of active species is low. However, at elevated concentrations, the relative concentration of impurities with respect to active species will be considerably lower and their effect will be minimized. In other words, higher CEs are expected when the active species concentration is larger.
CE is calculated by dividing the amount of charge passed during discharging (Qdischarge) by the amount of charge passed during charging (Qcharge). A considerably lower than 99% CE indicates instability and decomposition of active material via parasitic processes. It is known that CE is affected by the C-rate at which the battery is charged/discharged. Higher C-rates usually yield higher CEs due to the fact that less time is given for unwanted parasitic processes to consume the charged species, unlike in slow C-rates where such processes are allowed to consume charge leading to lower CEs.
BE cycling was performed at three different C-rates 3 C, 2 C, and 1 C with eight charge/discharge cycles at each C-rate. At slower charge-discharge rates, the accessed capacities were higher. This is expected due to the increase in the cell polarization at faster cycling rates.

[4] = organic solvent or mixture, thermodynamic from solid, read-out: Solubility

Row | Compound | solubility [1, 4] | E^o′1 (first redox potential) [2] | E^o′2 (second redox potential) [2] | ΔE (E^o′2 − E^o′1) [2] | D (diffusion coefficient) [2] | Cyclic voltammograms before and after BE (decomposition check) [3] | Capacity retention during BE ([3]; all C-rates (3 C, 2 C, 1 C)) | solubility [1] | Capacity retention during BE ([3]; after 8 cycles at 1 C) | Capacity retention during BE ([3]; after 8 cycles at 2 C) | Capacity retention during BE ([3]; after 8 cycles at 3 C)
1 | Cc1ccc(C(F)(F)F)cc1N(c1ccc(-c2ccc(N(c3cc(C(F)(F)F)ccc3C)c3cc(C(F)(F)F)ccc3C)cc2)cc1)c1cc(C(F)(F)F)ccc1C [4^+⋅] | 13 mM (≈ 10600 µg/mL) | 0.53 V vs Cp2Fe^0/+ | 0.69 V vs Cp2Fe^0/+ | 0.16 | 1.54 10^−6 cm^2 · s^−1 | substantial decrease in the peak heights | remarkable capacity decay | – | – | – | –
2 | COc1ccc(N(c2ccc(OC)cc2)c2ccc(-c3ccc(N(c4ccc(OC)cc4)c4ccc(OC)cc4)cc3)cc2)cc1 [2^+⋅] | 3.5 mM (≈ 2130 µg/mL) | 0.17 V vs Cp2Fe^0/+ | 0.33 V vs Cp2Fe^0/+ | 0.16 | 1.81 10^−6 cm^2 · s^−1 | identical CVs | good capacity retention | – | – | – | –
3 | COc1ccc(N(c2ccc(OC)cc2)c2ccc(N(c3ccc(OC)cc3)c3ccc(OC)cc3)cc2)cc1 [1^+⋅] | 9 mM (≈ 4790 µg/mL) | 0.00 V vs Cp2Fe^0/+ | 0.38 V vs Cp2Fe^0/+ | 0.38 | 4.49 10^−6 cm^2 · s^−1 | nearly identical | ~99% | 8.76 mM (≈ 4670 µg/mL) | – | – | –
4 | Cc1ccc(C(F)(F)F)cc1N(c1ccc(N(c2cc(C(F)(F)F)ccc2C)c2cc(C(F)(F)F)ccc2C)cc1)c1cc(C(F)(F)F)ccc1C [3^+⋅] | 13 mM (≈ 9630 µg/mL) | 0.41 V vs Cp2Fe^0/+ | 0.91 V vs Cp2Fe^0/+ | 0.50 | 7.67 10^−6 cm^2 · s^−1 | nearly identical features | – | 13.34 mM (≈ 9880 µg/mL) | 94% | 97% | 99%
